Reference: US20110136787A1, “DIPHENYL AZEPANE, DIAZEPANE AND OXAZEPANE DERIVATIVES AND USES THEREOF” (priority 2009, published 2011)

How the values were obtained:
[1] = target: T1, Human Serotonin Transporter (hSERT) (Homo sapiens, UniProt P31645); experiment: hSERT scintillation proximity assay (SPA), competition with [3H]-Citalopram; assay type: binding; conditions: pKi, membranes of HEK-293 cells expressing recombinant hSERT, read-out: SERT (converted)
T1 construct: expressed in transfected cells; host or cells: HEK-293, membrane preparation
T1 sequence (P31645 whole entry): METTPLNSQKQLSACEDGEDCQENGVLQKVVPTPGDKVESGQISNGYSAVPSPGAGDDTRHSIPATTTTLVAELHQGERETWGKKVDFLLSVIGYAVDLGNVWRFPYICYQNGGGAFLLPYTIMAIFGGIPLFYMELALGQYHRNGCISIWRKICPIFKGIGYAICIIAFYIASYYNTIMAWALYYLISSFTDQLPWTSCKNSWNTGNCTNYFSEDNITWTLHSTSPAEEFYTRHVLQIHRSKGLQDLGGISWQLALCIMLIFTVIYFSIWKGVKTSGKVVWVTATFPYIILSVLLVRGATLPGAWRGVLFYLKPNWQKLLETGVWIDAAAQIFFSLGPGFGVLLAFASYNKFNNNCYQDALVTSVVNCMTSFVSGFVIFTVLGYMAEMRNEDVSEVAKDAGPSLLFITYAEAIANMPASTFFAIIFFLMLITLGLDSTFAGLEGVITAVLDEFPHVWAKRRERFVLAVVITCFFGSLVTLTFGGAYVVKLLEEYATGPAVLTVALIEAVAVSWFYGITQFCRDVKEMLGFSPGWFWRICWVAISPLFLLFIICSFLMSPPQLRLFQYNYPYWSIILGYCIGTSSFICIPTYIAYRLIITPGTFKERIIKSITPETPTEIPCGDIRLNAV
Description: Screening for Human Serotonin Transporter (hSERT) Antagonists Using a Scintillation Proximity Assay (SPA)
The screening assay of this example was used to determine the affinity of ligands at the hSERT transporter by competition with [^3H]-Citalopram.
Scintillation Proximity Assay (SPA) works by bringing radioligand within close proximity to the bead's scintillant to stimulate light emission. In this assay, the receptor-containing membranes were pre-coupled to the SPA beads and the binding of the appropriate radioligand to the transporter was measured. The light emission was proportional to the amount of bound radioligand. Unbound radioligand produced no signal as a result of distant proximity to scintillant (lack of energy transfer).
(§1) HEK-293 cells (Tatsumi et al., Eur. J. Pharmacol. 1997, 30, 249-258) stably expressing recombinant hSERT were maintained with media (DMEM high glucose with 10% FBS, 300 ug/ml G418 and 2 mM L-Glutamine) and incubated at 37° C. with 5% CO2. Cells are released from culture flasks using PBS for 1-2 minutes. The cells were subsequently centrifuged at 1000 g′ s for 5 minutes and resuspended in PBS prior to being used in the membrane preparation.
(§2) Cell membranes were prepared using a membrane preparation buffer of 50 mM TRIS (pH 7.4). Cell membranes were prepared from a single cube (7.5×10^9 cells total). Cells were homogenized using a Polytron (setting medium for a 4 second burst). The homogenate was then centrifuged at 48,000×g for 15 minutes, the supernatant subsequently removed and discarded, and the pellet resuspended with fresh buffer. After a second centrifugation, the pellet was re-homogenized and brought to a final volume determined during the assay. Typically, membrane portions were aliquoted in 3 mg/ml (w:v). and stored at −80° C.
For Scintillation Proximity Assay IC50/Ki determination, 50 mM Tris-HCl and 300 mM NaCl, (pH 7.4) buffers were utilized. Compounds of the invention were diluted from 10 mM to 0.1 nM FAC (10 point curves, whole log/half log dilutions) via a Beckman Biomek 2000 using a serial dilution protocol. The test compounds were then transferred (20 ul/well) and the [^3H]-Citalopram radioligand was added at 50 ul/well. Membrane and beads were prepared to a ratio of 10 ug:0.7 mg, with 0.7 mg PVT-WGA Amersham beads (Cat# RPQ0282V) added per well. 130 ul of the membrane: bead mixture was added to the assay plate. The mixtures were allowed to stand at room temperature for one hour, and were then counted on a Packard TopCount LCS, a generic Scintillation Proximity Assay counting protocol settings (Energy Range: Low, Efficiency Mode: Normal, Region A: 1.50-35.00, Region B: 1.50-256.00, Count Time (min.): 0.40, Background Subtract: none, Half-Life Correction: no, Quench Indicator: tSIS, Platemap blank subtraction: No, Cross talk reduction: Off).
(§3) The % inhibition was calculated for each compound tested [(Compound counts per minute (CPM) at maximum concentration-Non-Specific CPM)/Total CPM*100]. The concentration producing 50% inhibition (IC50) was determined using an iterative non-linear curve fitting technique with Activity Base/Xlfit using the following equation:
(§4) where max=total binding, min=non specific binding, x=concentration (M) of the tested compound and n=Hill slope. The inhibition dissociation constant (Ki) of each compound was determined according to the method of Cheng-Prusoff and then converted into negative logarithm (pKi) of the Ki.

[2] = target: T2, Human Norepinephrine Transporter (hNET) (Homo sapiens, UniProt P23975); experiment: hNET scintillation proximity assay (SPA), competition with [3H]-Nisoxetine; assay type: binding; conditions: pKi, membranes of HEK-293 cells expressing recombinant hNET, read-out: NET (converted)
T2 construct: expressed in transfected cells; host or cells: HEK-293 (Clone: HEK-hNET #2), membrane preparation
T2 sequence (P23975 whole entry): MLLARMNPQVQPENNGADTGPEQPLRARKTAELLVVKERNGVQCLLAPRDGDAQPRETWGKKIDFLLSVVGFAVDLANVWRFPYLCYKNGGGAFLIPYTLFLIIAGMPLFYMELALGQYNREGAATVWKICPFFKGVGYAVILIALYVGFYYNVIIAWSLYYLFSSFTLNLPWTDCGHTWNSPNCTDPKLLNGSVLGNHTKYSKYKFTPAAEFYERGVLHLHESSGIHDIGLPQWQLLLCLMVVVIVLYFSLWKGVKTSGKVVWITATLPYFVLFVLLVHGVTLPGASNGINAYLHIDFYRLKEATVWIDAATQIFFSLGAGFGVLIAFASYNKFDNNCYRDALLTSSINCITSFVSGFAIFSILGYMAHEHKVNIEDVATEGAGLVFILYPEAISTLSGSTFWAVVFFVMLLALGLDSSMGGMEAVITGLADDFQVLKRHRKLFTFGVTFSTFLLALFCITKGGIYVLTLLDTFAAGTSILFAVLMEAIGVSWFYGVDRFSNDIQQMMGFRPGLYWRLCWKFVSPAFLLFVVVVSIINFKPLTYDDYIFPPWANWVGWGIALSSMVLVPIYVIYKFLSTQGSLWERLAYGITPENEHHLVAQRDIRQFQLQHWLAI
Experimental: Screening for compounds active at Human Norepinephrine Transporter (hNET) Using a Scintillation Proximity Assay (SPA)
This assay was used to determine the affinity of ligands for the hNET transporter by competition with [^3H]-Nisoxetine. As in the hSERT assay of the above example, receptor-containing membranes were pre-coupled to the SPA beads and the binding of the appropriate radioligand to the transporter was measured. The light emission was proportional to the amount of bound radioligand, with unbound radioligand producing no signal.
as §1, with “hNET (Clone: HEK-hNET #2)” for “hSERT”, “hi” for “high”, “were” for “are”
as §2, with “3-6” for “3”
^3[H] Nisoxetine radioligand (Amersham Cat. # TRK942 or Perkin Elmer Cat. # NET1084, specific activity: 70-87 Ci/mmol, stock concentration: 1.22e-5 M, final concentration: 8.25e-9 M), and 50 mM Tris-HCl, 300 mM NaCl, (pH 7.4) buffers were used for Scintillation Proximity Assay IC50/Ki determination. Compounds of the invention were diluted from 10 mM to 0.1 nM FAC (10 point curves, whole log/half log dilutions) via a Beckman Biomek 2000 using a serial dilution protocol. The test compounds were then transferred (20 ul/well) and the radioligand was added at 50 ul/well. Membrane and beads were prepared to a ratio of […], with 0.7 mg PVT-WGA Amersham beads (Cat# RPQ0282V) added per well. […] of the membrane: bead mixture was added to the assay plate. The mixtures were allowed to stand at room temperature for one hour, and were then counted on a Packard TopCount LCS, a generic SPA counting protocol settings (Energy Range: Low, Efficiency Mode: Normal, Region A: 1.50-35.00, Region B: 1.50-256.00, Count Time (min.): 0.40, Background Subtract: none, Half-Life Correction: no, Quench Indicator: tSIS, Platemap blank subtraction: No, Cross talk reduction: Off).
as §3, with “CPM” for “counts per minute (CPM)”
as §4

Ki [1] [nM] | Ki [2] [nM] | Structure (SMILES)
9.33 | 124 | c1ccc([C@H]2CCNCC[C@H]2c2ccccc2)cc1 [Compound 1, (4S,5R)-4,5-Diphenyl-azepane]
234 | 432 | Fc1ccc([C@@H]2OCCNC[C@@H]2c2ccccc2)cc1 [Compound 10, (6S,7R)-7-(4-Fluoro-phenyl)-6-phenyl-[1,4]oxazepane]
3630 |  | Fc1ccc(C2CCNCCN2c2ccccc2)cc1 (centres unmarked) [Compound 23, 7-(4-Fluoro-phenyl)-1-phenyl-[1,4]diazepane]
34.7 |  | COc1ccc([C@@H]2OCCNC[C@@H]2c2ccccc2)cc1 [Compound 8, (6S,7R)-7-(4-Methoxy-phenyl)-6-phenyl-[1,4]oxazepane]
 | 417 | c1ccc([C@H]2CNCCO[C@H]2c2ccccc2)cc1 [Compound 6, (6S,7R)-6,7-Diphenyl-[1,4]oxazepane]
170 | 422 | COc1ccccc1C1CCNCCN1c1ccccc1 (centres unmarked) [Compound 17, 7-(2-Methoxy-phenyl)-1-phenyl-[1,4]diazepane]
684 | 133 | c1ccc([C@H]2CNCCO[C@@H]2c2ccccc2)cc1 [Compound 5, (6S,7S)-6,7-Diphenyl-[1,4]oxazepane]
407 | 229 | Clc1ccc(C2CCNCCN2c2ccccc2)cc1 (centres unmarked) [Compound 15, 7-(4-Chloro-phenyl)-1-phenyl-[1,4]diazepane]
226 | 77.2 | c1ccc([C@H]2CCCNC[C@@H]2c2ccccc2)cc1 [Compound 3, (3S,4S)-3,4-Diphenyl-azepane]
398 | 275 | Fc1ccccc1[C@@H]1OCCNC[C@@H]1c1ccccc1 [Compound 9, (6S,7R)-7-(2-Fluoro-phenyl)-6-phenyl-[1,4]oxazepane]
164 |  | COc1ccc(C2CNCCCN2c2ccccc2)cc1 (centres unmarked) [Compound 14, 2-(4-Methoxy-phenyl)-1-phenyl-[1,4]diazepane]
394 |  | Clc1ccccc1C1CNCCCN1c1ccccc1 (centres unmarked) [Compound 20, 2-(2-Chloro-phenyl)-1-phenyl-[1,4]diazepane]
468 | 741 | c1ccc([C@H]2CCNCC[C@@H]2c2ccccc2)cc1 [Compound 4, (4S,5S)-4,5-Diphenyl-azepane]
398 | 106 | COc1ccccc1[C@@H]1OCCNC[C@@H]1c1ccccc1 [Compound 7, (6S,7R)-7-(2-Methoxy-phenyl)-6-phenyl-[1,4]oxazepane]
 | 214 | Fc1ccc(C2CNCCCN2c2ccccc2)cc1 (centres unmarked) [Compound 24, 2-(4-Fluoro-phenyl)-1-phenyl-[1,4]diazepane]
3.98 | 30.9 | COc1ccccc1[C@H]1CCNCC[C@H]1c1ccccc1 [Compound 2, (4S,5R)-4-(2-Methoxy-phenyl)-5-phenyl-azepane]
407 | 335 | c1ccc(C2CCNCCN2c2ccccc2)cc1 (centres unmarked) [Compound 12, 1,7-Diphenyl-[1,4]diazepane]
339 | 263 | Clc1ccc(C2CNCCCN2c2ccccc2)cc1 (centres unmarked) [Compound 16, 2-(4-Chloro-phenyl)-1-phenyl-[1,4]diazepane]
785 | 282 | c1ccc(C2CNCCCN2c2ccccc2)cc1 (centres unmarked) [Compound 11, 1,2-Diphenyl-[1,4]diazepane]
1100 | 2040 | COc1ccccc1C1CNCCCN1c1ccccc1 (centres unmarked) [Compound 18, 2-(2-Methoxy-phenyl)-1-phenyl-[1,4]diazepane]
73.3 | 219 | Clc1ccccc1C1CCNCCN1c1ccccc1 (centres unmarked) [Compound 19, 7-(2-Chloro-phenyl)-1-phenyl-[1,4]diazepane]

Structure (SMILES) | Ki [1] [nM] | Ki [2] [nM]
COc1ccc(C2CCNCCN2c2ccccc2)cc1 (centres unmarked) [Compound 13, 7-(4-Methoxy-phenyl)-1-phenyl-[1,4]diazepane] | 105 | 676
